Here are results for 19 compounds from ChEMBL document CHEMBL5325448, “Design, synthesis and biological evaluation of phosphoroxy quinazoline derivatives as potential EGFRT790M/C797S inhibitors” (Bioorg Med Chem, 2023).

The IC50 is the concentration that inhibits the measured activity by half. As usually defined, the AUC(0-inf) is the area under the concentration-time curve extrapolated to infinity. A lower AUC(0-inf) goes with less exposure. As a reminder, the MRT is a mean duration of stay, worked out from the concentration-time curve. In general, AUC(0-t) refers to the area under the concentration-time curve up to a stated or last time point. A lower AUC(0-t) goes with low exposure. A word on the Cmax: it is the peak of the concentration-time curve. Broadly, the half-life is how long it takes for the measured level to halve. High values mean slow loss, low ones fast loss.

A short description of series [1]: Cytotoxicity against mouse Ba/F3 EGFR-Del19/T790M/C797S cells assessed as cell growth inhibition measured after 72 hrs by CellTiter-Glo luminescent assay. The class given is functional, cell-based. In general terms: Cellular ATP, detected with luciferase, serves as a proxy for viable cell number.
Series [2] has as its target Epidermal growth factor receptor (Homo sapiens, UniProt P00533, C797S/L858R/T790M). The series can be described thus: Inhibition of EGFR L858R/T790M/C797S triple mutant (unknown origin) using TK as substrate incubated for 120 mins in presence of ATP by HTRF assay. A general note: Time-resolved FRET reads energy transfer from a long-lived donor to a nearby acceptor.
Series [3] has as its target Epidermal growth factor receptor (Homo sapiens, UniProt P00533, C797S/EX19DEL/T790M). The series can be described thus: Inhibition of EGFR Del19/T790M/C797S triple mutant (unknown origin) using TK as substrate incubated for 120 mins in presence of ATP by HTRF assay.
For series [4], the target named is Epidermal growth factor receptor (Homo sapiens, UniProt P00533). Briefly: Inhibition of wild type EGFR (unknown origin) using TK as substrate incubated for 120 mins in presence of ATP by HTRF assay.
Sequence of Epidermal growth factor receptor (Homo sapiens, UniProt P00533) (P00533 whole entry): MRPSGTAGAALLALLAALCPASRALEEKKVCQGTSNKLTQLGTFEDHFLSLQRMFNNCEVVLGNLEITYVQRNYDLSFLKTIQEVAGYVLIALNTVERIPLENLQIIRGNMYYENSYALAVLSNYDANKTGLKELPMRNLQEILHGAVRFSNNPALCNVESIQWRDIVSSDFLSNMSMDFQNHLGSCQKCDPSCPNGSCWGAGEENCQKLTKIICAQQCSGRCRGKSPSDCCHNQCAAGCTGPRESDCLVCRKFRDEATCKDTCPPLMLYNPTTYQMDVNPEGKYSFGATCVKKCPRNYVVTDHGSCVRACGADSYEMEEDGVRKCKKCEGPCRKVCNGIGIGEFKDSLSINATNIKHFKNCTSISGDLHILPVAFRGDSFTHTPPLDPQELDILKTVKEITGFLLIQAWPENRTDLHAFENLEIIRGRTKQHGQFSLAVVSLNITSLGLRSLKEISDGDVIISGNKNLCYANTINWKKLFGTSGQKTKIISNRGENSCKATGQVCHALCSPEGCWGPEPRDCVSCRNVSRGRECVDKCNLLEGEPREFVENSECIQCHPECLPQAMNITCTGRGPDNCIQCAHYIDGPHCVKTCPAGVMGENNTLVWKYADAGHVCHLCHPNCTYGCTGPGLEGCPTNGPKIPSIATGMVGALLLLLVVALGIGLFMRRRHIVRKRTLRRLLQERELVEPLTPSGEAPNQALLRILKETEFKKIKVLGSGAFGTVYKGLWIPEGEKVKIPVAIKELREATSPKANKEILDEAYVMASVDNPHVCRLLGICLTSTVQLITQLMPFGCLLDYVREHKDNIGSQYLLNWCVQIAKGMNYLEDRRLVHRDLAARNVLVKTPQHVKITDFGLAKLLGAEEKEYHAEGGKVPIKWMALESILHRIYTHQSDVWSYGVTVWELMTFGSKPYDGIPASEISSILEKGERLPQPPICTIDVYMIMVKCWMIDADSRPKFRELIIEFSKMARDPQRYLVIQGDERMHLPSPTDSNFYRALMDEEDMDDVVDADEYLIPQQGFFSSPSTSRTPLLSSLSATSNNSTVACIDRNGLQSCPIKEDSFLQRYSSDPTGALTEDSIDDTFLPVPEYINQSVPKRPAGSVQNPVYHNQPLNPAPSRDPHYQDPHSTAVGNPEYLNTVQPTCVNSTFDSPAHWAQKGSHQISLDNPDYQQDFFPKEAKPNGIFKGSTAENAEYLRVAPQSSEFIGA
In a further series the test system is A-431. The series can be described thus: Cytotoxicity against human A-431 cells assessed as cell growth inhibition incubated for 72 hrs by CellTiter-Glo luminescent assay. It is filed as functional, cell-based. The conditions noted are these: A-431, 72 h.
Series [5] is described as follows: AUC (0 to infinity) in BALB/c mouse at 5 mg/kg, po measured upto 24 hrs by LC/MS-MS analysis. The note with it: in vivo. The arrangement: time < 24 hrs, dose 5 mg/kg, route po. The class given is ADME, organism-based.
Series [6] in a line: MRT in BALB/c mouse at 5 mg/kg, po measured upto 24 hrs by LC-MS/MS analysis. The class given is ADME, organism-based. The note with it: in vivo.
A short description of series [7]: AUC (0 to t) in BALB/c mouse at 5 mg/kg, po measured upto 24 hrs by LC-MS/MS analysis. The conditions noted are these: in vivo. Set-up: time < 24 hrs, dose 5 mg/kg, route po. It is filed as ADME, organism-based.
Series [8] can be described thus: Cmax in BALB/c mouse at 5 mg/kg, po measured upto 24 hrs by LC-MS/MS analysis. The class given is ADME, organism-based. The arrangement: dose 5 mg/kg, time < 24 hrs, route po. The note with it: in vivo.
A short description of series [9]: Half life in BALB/c mouse at 5 mg/kg, po measured upto 24 hrs by LC/MS-MS analysis. The conditions noted are these: in vivo. It is filed as ADME, organism-based.
Series [10] has as its system PC-9. The series can be described thus: Antitumor activity against human PC-9 cells harboring EGFR Del19/T790M/C797S triple mutant xenografted in NOD/SCID mouse assessed as tumor growth inhibition at 30 mg/kg, po administered once a day for 21 consecutive days and measured twice a week relative to control. The class given is functional. The conditions noted are these: PC-9, 504 h, time 21 day, read-out: TGI.

Series [11] in a line: Antitumor activity against mouse Ba/F3 EGFR-Del19/T790M/C797S cells xenografted in BALB/c nude mouse assessed as tumor growth inhibition at 15 mg/kg, po administered once a day for 14 consecutive days and measured twice a week relative to control. It is filed as functional. The note with it: 336 h, time 14 day, read-out: TGI.
Series [12] deals with PC-9. The series can be described thus: Antitumor activity against human PC-9 cells harboring EGFR Del19/T790M/C797S triple mutant xenografted in NOD/SCID mouse assessed as tumor growth inhibition at 15 mg/kg, po administered once a day for 21 consecutive days and measured twice a week relative to control. The class given is functional. The note with it: PC-9, 504 h, time 21 day, read-out: TGI. (In xenograft studies the graft and the host belong to different species.)

The nature of series [13]: Antitumor activity against mouse Ba/F3 EGFR-Del19/T790M/C797S cells xenografted in BALB/c nude mouse assessed as tumor growth inhibition at 30 mg/kg, po administered once a day for 14 consecutive days and measured twice a week relative to control. The note with it: 336 h, time 14 day, read-out: TGI. The class given is functional.

Sequence of Epidermal growth factor receptor (Homo sapiens, UniProt P00533, C797S/L858R/T790M) (P00533 25-1210 T790M/C797S/L858R limits assumed): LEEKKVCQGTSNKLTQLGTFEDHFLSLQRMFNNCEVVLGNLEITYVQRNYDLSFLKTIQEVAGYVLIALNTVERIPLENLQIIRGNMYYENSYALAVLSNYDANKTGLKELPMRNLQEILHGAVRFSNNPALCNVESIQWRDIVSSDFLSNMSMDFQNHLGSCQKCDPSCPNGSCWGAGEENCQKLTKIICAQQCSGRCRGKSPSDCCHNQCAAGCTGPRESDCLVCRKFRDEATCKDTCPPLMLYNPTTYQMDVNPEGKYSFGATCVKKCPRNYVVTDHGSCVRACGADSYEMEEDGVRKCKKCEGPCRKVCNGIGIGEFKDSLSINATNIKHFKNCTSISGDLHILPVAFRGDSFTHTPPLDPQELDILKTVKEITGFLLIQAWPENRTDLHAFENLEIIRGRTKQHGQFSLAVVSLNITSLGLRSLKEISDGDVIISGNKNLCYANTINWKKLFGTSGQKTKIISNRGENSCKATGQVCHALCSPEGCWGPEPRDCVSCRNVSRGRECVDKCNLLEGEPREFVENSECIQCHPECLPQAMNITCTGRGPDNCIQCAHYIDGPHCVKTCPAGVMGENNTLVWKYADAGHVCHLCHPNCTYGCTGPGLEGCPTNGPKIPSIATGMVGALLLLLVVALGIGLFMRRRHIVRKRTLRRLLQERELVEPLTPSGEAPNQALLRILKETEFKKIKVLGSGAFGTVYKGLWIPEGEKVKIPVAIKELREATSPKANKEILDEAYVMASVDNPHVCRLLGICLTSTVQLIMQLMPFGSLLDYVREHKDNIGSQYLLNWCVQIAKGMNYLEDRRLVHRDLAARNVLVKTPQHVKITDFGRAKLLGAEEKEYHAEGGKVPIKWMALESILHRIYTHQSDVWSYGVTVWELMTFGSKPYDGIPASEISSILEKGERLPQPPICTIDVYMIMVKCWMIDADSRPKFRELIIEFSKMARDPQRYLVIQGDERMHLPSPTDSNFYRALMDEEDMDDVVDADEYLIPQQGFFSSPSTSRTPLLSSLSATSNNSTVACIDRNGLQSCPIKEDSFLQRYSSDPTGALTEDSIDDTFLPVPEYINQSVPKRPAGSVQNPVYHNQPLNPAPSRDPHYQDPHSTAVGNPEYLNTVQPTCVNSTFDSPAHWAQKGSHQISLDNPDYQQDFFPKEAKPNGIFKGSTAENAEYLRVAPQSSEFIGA
Sequence of Epidermal growth factor receptor (Homo sapiens, UniProt P00533, C797S/EX19DEL/T790M) (P00533 whole entry, looked up, stated change not applied): as the sequence (P00533 whole entry) above

In the case of `COc1cc(N2CCC(N3CC[C@@H](N(C)C)C3)CC2)c(C)cc1Nc1ncc(Br)c(Nc2ccc3nccnc3c2P(C)(C)=O)n1`, the 50% inhibitory concentration (IC50) in series [1] was determined as 9 nM; in series [2], 0.13 nM.

For the compound `COc1cc(N2CCC(N3CC(C(C)(C)O)C3)CC2)c(C)cc1Nc1ncc(Br)c(Nc2ccc3nccnc3c2P(C)(C)=O)n1`, the IC50 in series [1] came to 18 nM; in series [3], 0.07 nM; in [2], 0.15 nM.

In the case of `CCc1cc(Nc2ncc(Cl)c(Nc3ccc4nccnc4c3P(C)(C)=O)n2)c(OC)cc1N1CCC(N2CC(N(C)C)C2)CC1`, the half-maximal inhibitory concentration (IC50) in series [1] was 29.7 nM; in [4], more than 500 nM; in series [3], 0.61 nM; in series [2], 0.4 nM.

For the compound `COc1cc(N2CCC(N3CC(C)(CO)C3)CC2)c(C)cc1Nc1ncc(Br)c(Nc2ccc3nccnc3c2P(C)(C)=O)n1`, the IC50 worked out at 17.7 nM in [1], 0.06 nM in series [3] and 0.15 nM in series [2].

Consider `COc1cc(N2CCC(N3CC(N(C)C)C3)CC2)c(C)cc1Nc1ncc(SC)c(Nc2ccc3nccnc3c2P(C)(C)=O)n1`, for which the figures for the half-maximal inhibitory concentration (IC50) in series [1], in [3] and in series [2] were 19.7 nM, 0.39 nM and 0.05 nM, respectively.

Consider `CCOC1CN(C2CCN(c3cc(OC)c(Nc4ncc(Br)c(Nc5ccc6nccnc6c5P(C)(C)=O)n4)cc3C)CC2)C1`, for which the figures for the IC50 in series [1] and in series [3] were 29 nM and 0.65 nM, respectively.

In the case of `COc1cc(N2CCC(N3CC(CO)C3)CC2)c(C)cc1Nc1ncc(Br)c(Nc2ccc3nccnc3c2P(C)(C)=O)n1`, the IC50 is 41 nM in series [1], 590 nM in series [4], 0.57 nM in series [3] and 0.34 nM in series [2].

As to `CCc1cc(Nc2ncc(Br)c(Nc3ccc4nccnc4c3P(C)(C)=O)n2)c(OC)cc1N1CCC(N2CC(N(C)C)C2)CC1`, the 50% inhibitory concentration (IC50) in series [1] was found to be 16.3 nM; in [3], 0.11 nM.

As to `COc1cc(N2CCC(N3CCN(C(C)=O)CC3)CC2)c(C)cc1Nc1ncc(Br)c(Nc2ccc3nccnc3c2P(C)(C)=O)n1`, the IC50 is 17.7 nM in series [1]; 500 nM in [4]; 0.07 nM in series [3]; 578 nM with A-431; 0.12 nM in series [2].

Consider `COc1cc(N2CCC(N3CC(CC#N)C3)CC2)c(C)cc1Nc1ncc(Br)c(Nc2ccc3nccnc3c2P(C)(C)=O)n1`, for which the IC50 amounted to 12.7 nM in series [1], 461 nM in series [4], 0.33 nM in [3] and 0.12 nM in [2]. The compound further yielded an AUC(0-inf) in [5] of 11200 ng·h/mL. In series [6], this compound returned an MRT of 5.12 h. The same compound returned an area under the curve AUC(0-t) at 24 h in series [7] of 11200 ng·h/mL. Also, the Cmax in [8] stood at 1270 ng/mL. In [9], this compound had a half-life of 3.1 h.

Regarding `COc1cc(N2CCC(N3C[C@H]4COC[C@H]4C3)CC2)c(C)cc1Nc1ncc(Br)c(Nc2ccc3nccnc3c2P(C)(C)=O)n1`, the IC50 in series [1] was found to be 11 nM; with A-431 it was 425 nM; in [2] it was 0.12 nM. Also, the AUC(0-inf) in series [5] stood at 11200 ng·h/mL. Also, in [6], the mean residence time (MRT) came to 5.6 h. In addition, in [7], the area under the curve AUC(0-t) at 24 h amounted to 11200 ng·h/mL. Further, the highest level in series [8] (Cmax) was 1360 ng/mL. The half-life in [9] was 3.3 h.

Turning to `CCc1cc(Nc2ncc(C(F)(F)F)c(Nc3ccc4nccnc4c3P(C)(C)=O)n2)c(OC)cc1N1CCC(N2CC(N(C)C)C2)CC1`, the 50% inhibitory concentration (IC50) in series [1] came to 54 nM; with A-431, 547 nM.

Consider `COc1cc(N2CCC(N3CC(N(C)C)C3)CC2)c(C)cc1Nc1ncc(Cl)c(Nc2ccc3nccnc3c2P(C)(C)=O)n1`, for which the IC50 is 16.3 nM in [1], 0.25 nM in series [3] and 0.12 nM in series [2].

Regarding `COCC1(C)CN(C2CCN(c3cc(OC)c(Nc4ncc(Br)c(Nc5ccc6nccnc6c5P(C)(C)=O)n4)cc3C)CC2)C1`, the IC50 in series [1] is 22.3 nM; in series [4] it was more than 500 nM; in series [3] it was 0.3 nM; in series [2], 0.81 nM.

`COCC1CN(C2CCN(c3cc(OC)c(Nc4ncc(Br)c(Nc5ccc6nccnc6c5P(C)(C)=O)n4)cc3C)CC2)C1`: the results for the IC50 in series [1], in series [3] and in [2] were 15 nM, 0.69 nM and 0.06 nM, respectively.

`COc1cc(N2CCC(N3CC(N(C)C)C3)CC2)c(C)cc1Nc1ncc(Br)c(Nc2ccc3nccnc3c2P(C)(C)=O)n1`: the inhibition in vivo at 30 mg/kg with PC-9 [10] turned out to be 46.8%; in series [13], 82.6%. Moreover, the inhibition in vivo at 15 mg/kg in series [11] came to 48.4%; in the series with PC-9 [12], 21.6%. For the same compound, the IC50 in [1] came to 12.7 nM; in series [3] it was 0.06 nM. In series [5], the area under the curve AUC(0-inf) came out at 15600 ng·h/mL. The compound further had an MRT in [6] of 6 h. For the same compound, the AUC(0-t) at 24 h in series [7] was determined as 15400 ng·h/mL. In addition, the concentration in series [8] peaked (Cmax) at 1570 ng/mL. This compound gave a half-life in [9] of 3.5 h.

Take `COc1cc(N2CCC(N3CC(F)(CO)C3)CC2)c(C)cc1Nc1ncc(Br)c(Nc2ccc3nccnc3c2P(C)(C)=O)n1`: the 50% inhibitory concentration (IC50) is 18.7 nM in series [1]; more than 500 nM in series [4]; 0.13 nM in [3]; 808 nM in the series with A-431; 0.1 nM in [2]. The compound further gave a total exposure AUC(0-inf) in [5] of 17000 ng·h/mL. The compound further returned an MRT in [6] of 6.3 h. Moreover, the AUC(0-t) at 24 h in series [7] was determined as 16900 ng·h/mL. The highest level in series [8] (Cmax) was 1730 ng/mL. This compound gave a half-life in series [9] of 3.7 h.

Regarding `COc1cc(N2CCC(N3CCN(C)CC3)CC2)ccc1Nc1ncc(Cl)c(Nc2ccccc2P(C)(C)=O)n1` [BRIGATINIB], the IC50 in series [1] was found to be 433 nM. The compound further had an AUC(0-inf) in series [5] of 6500 ng·h/mL. Besides, the AUC(0-t) at 24 h in [7] was determined as 6490 ng·h/mL. In [8], this compound yielded a Cmax of 927 ng/mL. The same compound showed a half-life in series [9] of 2.8 h.

Take `COc1cc(N2CCC(N(C)CCN(C)C)CC2)c(C)cc1Nc1ncc(Br)c(Nc2ccc3nccnc3c2P(C)(C)=O)n1`: the 50% inhibitory concentration (IC50) in series [1] is 16 nM; in series [3], 0.06 nM; with A-431, 406 nM; in [2], 0.15 nM.
